From US8853230B2, “Inhibitors of JAK” (Portola Pharmaceuticals, Inc., priority 2009, dated 2014) come the findings set out here.

The target in test [1] is T1, JAK1 (Homo sapiens, UniProt P23458).
T1 construct: 5 μl of catalytic domain recombinant Kinase enzyme+Tyr peptide substrate (Invitrogen, Calif.); purchased Invitrogen
Kind of test: Z'-LYTE kinase assay, JAK1 tyrosine phosphorylation activity. It is filed as biochemical. The following applies: read-out: JAK 1 IC50. In a few lines: (§1)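 FRET read-out (ex 400 nm, em 445 and 520 nm) after protease cleavage of non-phosphorylated Tyr6 peptide. Kinase step: catalytic-domain enzyme, peptide, ATP and compound, 1 h at RT, 1% DMSO. IC50 from a 4-parameter logistic fit of percent phosphorylation versus uninhibited control.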

Test [2] has as its target T2, JAK2 (Homo sapiens, UniProt O60674).
T2 construct: 5 μl of catalytic domain recombinant Kinase enzyme+Tyr peptide substrate (Invitrogen, Calif.); purchased Invitrogen
Kind of test: Z'-LYTE kinase assay, JAK2 tyrosine phosphorylation activity. Type of test: biochemical. The gist of the method: as §1

The target in test [3] is T3, JAK3 (Homo sapiens, UniProt P52333).
T3 construct: 5 μl of catalytic domain recombinant Kinase enzyme+Tyr peptide substrate (Invitrogen, Calif.); purchased Invitrogen
Kind of test: Z'-LYTE kinase assay, JAK3 tyrosine phosphorylation activity. Type of test: biochemical. In a few lines: as §1

In test [4] the target is T4, TYK2 (Homo sapiens, UniProt P29597).
T4 construct: 5 μl of catalytic domain recombinant Kinase enzyme+Tyr peptide substrate (Invitrogen, Calif.); purchased Invitrogen
T4 sequence (P29597 897-1176 limits assumed): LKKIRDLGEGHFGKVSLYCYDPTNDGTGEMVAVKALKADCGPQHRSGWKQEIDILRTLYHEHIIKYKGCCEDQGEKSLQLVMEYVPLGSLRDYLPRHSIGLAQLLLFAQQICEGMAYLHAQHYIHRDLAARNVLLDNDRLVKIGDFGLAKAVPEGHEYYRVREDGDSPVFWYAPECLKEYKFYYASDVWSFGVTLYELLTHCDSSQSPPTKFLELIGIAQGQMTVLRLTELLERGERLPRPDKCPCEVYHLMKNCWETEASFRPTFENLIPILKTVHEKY
Put plainly: Z'-LYTE kinase assay, TYK2 tyrosine phosphorylation activity. Type of test: biochemical. In a few lines: as §1

In test [5] the test system is IL4-induced phospho STAT6 formation in Ramos B lymphocytes. Kind of test: Inhibition of IL4-induced phospho STAT6 formation in Ramos B lymphocytes (flow cytometry). It is filed as cell-based, human. The note with it: Homo sapiens; for inhibition at 0.2 µM: 200 nM compound, read-out: % Inhibition of IL-4 Induced STAT6 Phosphorylation 200 nM; for inhibition at 1 µM: 1 μM compound, read-out: % Inhibition of IL-4 Induced STAT6 Phosphorylation 1 μM. In a few lines:
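Read-out: phospho-STAT6 (Y641) mean fluorescent intensity by intracellular flow cytometry, expressed as inhibition of the IL4-induced signal. Ramos B lymphocytes were given compound for 1 h at 37°C, then 1 ng/ml IL4 for 10 min, before fixation and methanol permeabilization.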

For test [6], the target named is Syk (Homo sapiens, UniProt P43405). Kind of test: Syk IC50 (Table 1; method not given). It is filed as biochemical.

T1 sequence (P23458 875-1153 limits assumed): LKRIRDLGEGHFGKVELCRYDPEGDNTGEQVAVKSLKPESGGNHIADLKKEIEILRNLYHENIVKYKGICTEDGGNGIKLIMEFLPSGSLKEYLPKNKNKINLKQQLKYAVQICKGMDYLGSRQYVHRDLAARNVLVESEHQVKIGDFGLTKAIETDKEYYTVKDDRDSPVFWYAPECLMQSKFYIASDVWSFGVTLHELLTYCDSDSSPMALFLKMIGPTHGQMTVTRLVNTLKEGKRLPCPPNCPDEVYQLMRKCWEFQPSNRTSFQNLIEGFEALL
T2 sequence (O60674 849-1124 limits assumed): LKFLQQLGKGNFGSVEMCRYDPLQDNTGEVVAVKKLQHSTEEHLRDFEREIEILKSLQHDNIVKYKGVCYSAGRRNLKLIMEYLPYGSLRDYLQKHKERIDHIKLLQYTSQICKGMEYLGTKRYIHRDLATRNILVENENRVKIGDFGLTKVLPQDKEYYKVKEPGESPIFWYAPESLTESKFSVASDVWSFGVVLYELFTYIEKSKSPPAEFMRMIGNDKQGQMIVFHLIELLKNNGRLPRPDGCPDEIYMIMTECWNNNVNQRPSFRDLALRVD
T3 sequence (P52333 822-1111 limits assumed): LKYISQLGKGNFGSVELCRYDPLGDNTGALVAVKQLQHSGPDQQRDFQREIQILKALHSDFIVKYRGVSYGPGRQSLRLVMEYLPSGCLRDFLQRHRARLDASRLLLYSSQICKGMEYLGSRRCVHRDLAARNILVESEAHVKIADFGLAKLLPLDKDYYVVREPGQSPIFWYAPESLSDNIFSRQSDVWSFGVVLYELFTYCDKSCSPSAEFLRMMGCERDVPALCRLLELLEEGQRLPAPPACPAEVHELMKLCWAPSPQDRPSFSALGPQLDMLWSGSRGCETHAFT

As for `NC(=O)c1cnc(Nc2cccc(NC(=O)N3CCCC3)c2)nc1NCc1ccccc1` [Example 40, 4-(benzylamino)-2-(3-(pyrrolidine-1-carboxamido)phenylamino)pyrimidine-5-carboxamide], the IC50 in test [1] was 10 to 100 nM; in test [2], 10 to 100 nM; in test [3], less than 1 nM; in test [4] it was 1 to 10 nM; in test [6] it was greater than 1000 nM. The inhibition at 0.2 µM in test [5] amounted to 47.2%. The inhibition at 1 µM in test [5] was determined as 78.8%.
As to `CC(C)OC(=O)Nc1cccc(Nc2ncc(C(N)=O)c(NCc3ccccc3)n2)c1` [Example 41, isopropyl 3-(4-(benzylamino)-5-carbamoylpyrimidin-2-ylamino)phenylcarbamate], the IC50 in test [1] is greater than 1000 nM; in test [2], 100 to 1000 nM; in test [3], 10 to 100 nM; in test [4], 10 to 100 nM; in test [6], greater than 1000 nM. Besides, in test [5], the inhibition at 0.2 µM came out at 50.7%. Moreover, in test [5], the inhibition at 1 µM turned out to be 95.3%.
Take `COCC(=O)Nc1cccc(Nc2ncc(C(N)=O)c(N[C@H](C)c3ccccc3)n2)c1` [Example 47, (R)-2-(3-(2-methoxyacetamido)phenylamino)-4-(1-phenylethylamino)pyrimidine-5-carboxamide]: the IC50 was 100 to 1000 nM in test [1]; 10 to 100 nM in test [2]; 1 to 10 nM in test [3]; 10 to 100 nM in test [4]; greater than 1000 nM in test [6]. The inhibition at 0.2 µM in test [5] was found to be 25.3%. Further, the inhibition at 1 µM in test [5] stood at 77.7%.
For the compound `CC(=O)Nc1cccc(Nc2ncc(C(N)=O)c(NC3CCCCC3)n2)c1` [Example 52, 2-(3-acetamidophenylamino)-4-(cyclohexylamino)pyrimidine-5-carboxamide], the IC50 in test [1] fell in the range of 10 to 100 nM; in test [2], 10 to 100 nM; in test [3], 1 to 10 nM; in test [4], 1 to 10 nM; in test [6], 100 to 1000 nM. In test [5], the inhibition at 0.2 µM worked out at 63%. The inhibition at 1 µM in test [5] worked out at 94%.
Consider `COCC(=O)Nc1cccc(Nc2ncc(C(N)=O)c(NC(C)C)n2)c1` [Example 57, 4-(isopropylamino)-2-(3-(2-methoxyacetamido)phenylamino)pyrimidine-5-carboxamide], for which the IC50 was in the range of 10 to 100 nM in test [1]; 10 to 100 nM in test [2]; 1 to 10 nM in test [3]; 10 to 100 nM in test [4]; 100 to 1000 nM in test [6]. Moreover, the inhibition at 0.2 µM in test [5] was found to be 55%. Also, in test [5], the inhibition at 1 µM was 76.5%.
As for `CC(=O)Nc1cccc(Nc2ncc(C(N)=O)c(N[C@H](CO)Cc3cnc[nH]3)n2)c1` [Example 60, (S)-2-(3-acetamidophenylamino)-4-(1-hydroxy-3-(1H-imidazol-5-yl)propan-2-ylamino)pyrimidine-5-carboxamide], the IC50 in test [1] is 100 to 1000 nM; in test [2], 100 to 1000 nM; in test [3], 10 to 100 nM; in test [4] it was 100 to 1000 nM; in test [6], greater than 1000 nM. For the same compound, in test [5], the inhibition at 0.2 µM came out at 12.5%. Besides, the inhibition at 1 µM in test [5] came out at 23%.
Take `CC[C@H](C)[C@@H](CO)Nc1nc(Nc2cccc(NC(C)=O)c2)ncc1C(N)=O` [Example 73, 2-(3-acetamidophenylamino)-4-((2S,3S)-1-hydroxy-3-methylpentan-2-ylamino)pyrimidine-5-carboxamide]: the IC50 in test [1] is 10 to 100 nM; in test [2] it was 10 to 100 nM; in test [3] it was 1 to 10 nM; in test [4] it was 1 to 10 nM; in test [6] it was greater than 1000 nM. Further, in test [5], the inhibition at 0.2 µM is 17.1%. Besides, the inhibition at 1 µM in test [5] was determined as 55.6%.
As to `CC(=O)Nc1cccc(Nc2ncc(C(N)=O)c(NC3CCOCC3)n2)c1` [Example 75, 2-(3-acetamidophenylamino)-4-(tetrahydro-2H-pyran-4-ylamino)pyrimidine-5-carboxamide], the 50% inhibitory concentration (IC50) in test [1] is 10 to 100 nM; in test [2], 10 to 100 nM; in test [3], 1 to 10 nM; in test [4] it was 10 to 100 nM; in test [6], greater than 1000 nM. For the same compound, the inhibition at 0.2 µM in test [5] came to 53.3%. In test [5], the inhibition at 1 µM is 90.3%.
